Reference: patent US6331555A, “Treatment of platelet derived growth factor related disorders such as cancers” (priority 1999, dated 2001)

Legend:
9L glioma = test: SC xenograft in mice; type: in vivo, rat; conditions: nu/nu, 20 mg/kg/day, day 20
Procedure: (§1) Cell lines were grown in appropriate medium (see Appendix 1). Cells were harvested at or near confluency with 0.05% Trypsin-EDTA and pelleted at 450×g for 10 min. Pellets were resuspended in sterile PBS or media (without FBS) to a particular concentration and the cells were implanted into the hindflank of mice. Tumor growth was measured over 3 to 6 weeks using venier calipers. Tumor volumes were calculated as a product of length×width×height unless otherwise indicated. P values were calculated using the Students' t-test.

[1] = in vivo
Text: Many cancer therapeutics are cytotoxic in nature and have profound effects on blood cells resulting in cytopenia.

C6 cells = test: PDGF-stimulated DNA synthesis, C6 cells (3H-thymidine); type: cell-based, rat; conditions: 50 ng/ml PDGF-BB
PDGF-R = PDGF-R autophosphorylation, T98G glioblastoma cells; type: cell-based, human; conditions: 200, 500, 1000 mM; 20 ng/ml PDGF-BB
Procedure: Proteins were then separated by SDS-polyacrylamide gel electrophoresis (PAGE). Proteins containing phosphorylated tyrosine were identified by western blotting with an anti-phosphotyrosine antibody. The level of phosphorylated tyrosine was determined by quantitating the amount of bound anti-phosphotyrosine. Quantitation was carried out by peak area integration using a Molecular Dynamics Computing Densitometer (Model 300S), and Image Quant v3.0 software (Molecule Dynamics). Data were expressed as relative peak.intensity (phosphorylation of a receptor divided by the total amount of phosphorylated tyrosine).
T98G cells were plated in MCDB105 medium containing 2% FBS and incubated for 24 hours at 37° C. […] The cells were then treated with ligand for 10 minutes (20 ng/ml PDGF-BB or 50 ng/ml EGF). The cells were lysed and the level of phosphorylated receptor was quantitated as described in Example 1.

tumor xenografts = test: Xenografts of various tumor types in mice; type: in vivo
Procedure: as §1

RR-SRC peptide substrate = conditions: cited from earlier work
PC-3 prostate tumor = test: SC xenograft in mice; type: in vivo, human; conditions: SCID
Procedure: as §1
(§2) The mice were treated for three week.

A375 melanoma = test: SC xenograft in mice; type: in vivo, human
Procedure: as §1, §2

in vivo = conditions: mouse, ip
Procedure: The LD50 was calculated from a plot of % mortality versus dose (log M) using a four parameter logistic equation.

[2] = test system: autoimmune animal diseases; conditions: in vivo; cited from earlier work
[3] = test system: ovarian carcinoma primary tumor cells; test: Growth of primary tumor cells from ovarian carcinoma patients; type: cell-based, human; design: tumor cell growth: dose or concentration left out as unconfirmed
Procedure: Viable tumors were placed into medium by the pathologist at the referring institution immediately after surgery, and shipped to Oncotech by overnight delivery. As soon as a tumor was received, a portion was fixed in formalin for sectioning and the remainder trimmed of necrotic, connective and adipose tissues. All tumor manipulations were performed aseptically. The remaining tumor was placed into a Petri dish containing 5 mL of medium (RPMI 1640 supplemented with 10% FBS, 100 IU/mL penicillin, […] streptomycin and L-glutamine) and disaggregated mechanically with scissors into pieces 2 mm or smaller. […]
After enzymatic dispersion into a near single-cell suspension, tumor cells were filtered through nylon mesh, washed in medium, suspended in soft agarose (0.12%) and plated at approximately 20,000 cells per well onto an agarose underlayer (0.4%) in 24-well plates. […] After the appropriate labeling period, tissue culture plates were heated at 60° C. to melt the agarose, the cells harvested with a micro-harvester onto glass fiber filters and the radioactivity determined. Percent inhibition (PCI) was determined using the formula: PCI=1-(CPM treatment group […] CPM control group). Determinations of control group proliferation were performed in quadruplicate, while treatment group proliferation was determined in triplicate. […]

LD10 = conditions: in vivo

SMILES	% Inhibition (9L glioma) [%]	effects on blood cell [1]	PDGF-stimulated DNA synthesis (C6 cells)	autophosphorylation of PDGF-R by PDGF (PDGF-R)	growth of xenografts (tumor xenografts; 12 to 20 mg/kg/day, glioma, SKOV3T, PA-1, A375, PC-3, Calu-6, D1B, L1210)	inhibition of glioma growth (tumor xenografts; xenografted gliomas in mice, some animals, relative to untreated controls)	tyrosine phosphorylation of the RR-SRC peptide substrate (RR-SRC peptide substrate)	tumor growth inhibition (PC-3 prostate tumor; 12 mg/kg/day (PBTE:D5W), five days per week, from day 15, after three weeks)	% Inhibition (PC-3 prostate tumor; 12 mg/kg/day, day 36, treatment from day 15) [%]	tumor growth inhibition (A375 melanoma; 15 mg/kg/day, five days per week, from day 9, after three weeks)	% Inhibition (A375 melanoma; SCID, 15 mg/kg/day, day 31, treatment from day 9) [%]	% Inhibition (A375 melanoma; nu/nu, 20 mg/kg/day, day 31) [%]	LD50 (in vivo) [mg/kg]	autoimmune animal diseases [2]	tumor cell growth [3]	IC50 ([3]; Homo sapiens, range over six patients, read-out: IC50, ovarian tumors) [µM]	LD10 (LD10) [mg/kg]
Cc1oncc1C(=O)Nc1ccc(C(F)(F)F)cc1 [Compound A10, 5-methylisoxazole-4 carboxylic acid-(4-trifluromethyl)-anilide]	83	No effects on blood cell were observed	decreased PDGF-stimulated DNA synthesis in both types of cells	inhibited autophosphorylation of PDGF-R by PDGF	effectively inhibited the growth	greater than 95%	dose dependently, inhibited	about 50%	47	about 40%	35	53	145	very effective in preventing and curing several autoimmune animal diseases	tumor cell growth decreased for both types of tumors	20 to 140	
c1ccc(-c2cnc3cc4ccccc4cc3n2)cc1 [Compound G22]																	25
